Test results: US11938121B2, “Treatment of infections and biofilm formation using a cellulose synthase inhibitor” (Purdue Research Foundation, priority 2020, dated 2024)

How the values were obtained:
[1] = target: T1, GFP-CESA6c^P595S: GFP-tagged central cytoplasmic domain of AtCESA6 (cellulose synthase, CESA6) carrying missense mutation P595S, with a His-SUMO tag (Arabidopsis thaliana, UniProt Q94JQ6, P595S); experiment: Microscale thermophoresis (MST) binding to purified GFP-tagged CESA6c^P595S (missense mutant)
T1 construct: We purified AtCESA6 central cytoplasmic domain carrying missense mutation P595S (CESA6c^P595S); His-SUMO; made in house; host or cells: E. coli
Excerpt: FIGS. 3A-3Q. […] FIG. 3A to FIG. 3G. […] FIG. 3A. Representative 5-day-old dark-grown Arabidopsis Col-0 seedlings grown on growth medium supplemented with different concentrations of ES20 or ES20-1. Scale bar: 1 cm. FIG. 3B. Quantification of hypocotyl length of 5-day-old dark-grown Arabidopsis Col-0 seedlings described in FIG. 3A. Data represent mean±SD (n=12 seedlings). FIG. 3C. Quantification of crystalline cellulose content in the hypocotyl cell walls of 7-day-old dark-grown Col-0 seedlings grown on growth medium supplemented with DMSO (0.1%), 1 μM ES20, or 1 μM ES20-1. Data represent mean±SD (n=3 biological replicates). FIG. 3D and FIG. 3E. […] FIG. 3D. Representative image of 6-day-old rice seedlings grown in sterile water supplemented with DMSO (0.1%), 20 μM ES20, or 20 μM ES20-1. Scale bar: 1 cm. FIG. 3E. Quantification of root length of rice seedlings as described in FIG. 3D. Data represent mean±SD (n=10 seedlings). FIG. 3F and FIG. 3G. […] FIG. 3F. […] Quantification of root length of maize seedlings as described in FIG. 3F. […] Quantitative analysis of the band intensity of YFP-AtCESA6 and SEC12 in ES20-1-treated samples divided by that of DMSO-treated samples in the DARTS assay described in FIG. 3H. […] Statistically significant differences in FIG. 3B were determined using one-way ANOVA followed by Tukey's multiple comparisons test. […]

[2] = tested on: AtCESA6 carrying missense mutations in prc1-1; experiment: Root growth of transgenic plants expressing mutated AtCESA6 in prc1-1; format: in vivo, Arabidopsis thaliana; details: D562N, D564N, D785N, Q823E, R826A, W827A in prc1-1
Excerpt: We then examined whether transgenic plants expressing AtCESA6 with predicted missense mutations at the catalytic site in prc1-1 background would have altered sensitivity to active ES20 analogs. […] However, the responses of two transgenic lines expressing AtCESA6 carrying missense mutations outside of the catalytic site (L365F and D395N) to nine active ES20 analogs were similar to those of wild-type plants (FIG. 2B).
To test the inhibitory effects of different chemicals on plant growth, wild-type Arabidopsis Col-0 plants were used. The seeds of plants used for growth assays or live cell imaging were sequentially sterilized with 50% bleach and 75% ethanol. […] To quantify the inhibitory effects of different ES20 active analogs on the root growth of Arabidopsis wildtype, EMS mutants, and transgenic plants expressing mutated AtCESA6 in prc1-1 background, sterilized Col-0, mutants, and transgenic plants seeds were sown on gridded Petri plates containing ½-strength MS medium supplemented with different concentrations of ES20 analogs. […] The plates were scanned using an Epson Perfection V550 scanner after 7 days of growth, and the root lengths of plants were quantified using ImageJ software. […] The Petri dishes were scanned, and hypocotyl length was measured using ImageJ. […]

Cc1ccccc1C(=O)NNC(=S)NC(=O)c1ccccc1 [ES20-1]
Kd [1]: 9.5 ± 6.3 µM | sensitivity of transgenic lines with AtCESA6 catalytic site mutations [2]: Reduced sensitivity
